Consider 3 compounds from patent publication US6114393A, “Use of inhibitors of the sodium-hydrogen exchanger for the production of a pharmaceutical for the treatment of disorders which are caused by protozoa” (Hoechst Marion Roussel Deutschland GmbH, priority 1997, dated 2000).

Where a name gives a salt, the structure may show the parent alone. Read-outs that look alike come from different tables or passages of the source.

Assay [1] relates to Plasmodium falciparum Dd2 (chloroquine-resistant) strain. In words: growth inhibition of Plasmodium falciparum, [3H]-hypoxanthine incorporation, chloroquine-resistant (Dd2) strain. The note with it: read-out: Dd2 IC50. In kind it is cell-based. On the procedure: (§1) Erythrocytic stages of the human malaria parasite Plasmodium falciparum were cultured in RPMI 1640 medium, with L-glutamine, 25 mM HEPES, 4 μg/ml of gentamycin, 10% human serum and 5% human erythrocytes, according to Trager and Jensen (1976). The cultures were kept in Petri dishes (10 ml per dish with 10 cm diameter) and incubated at 37° C. in an atmosphere of 92% nitrogen, 3% carbon dioxide and 5% oxygen. The medium of the cultures was changed daily. At a parasitemia of at most 10%, the cultures were diluted. In order to synchronize the cultures, the infected erythrocytes were washed in 5% strength sorbitol solution according to Lambros and Vanderberg (1979). Only the ring stages survive this treatment.
(§2) The half-maximal inhibitory concentration of various NHE inhibitors for the growth of Plasmodium flaciparum was measured in 96-well microtiter plates by incorporation of radioactive hypoxanthine according to Desjardins et al. (1979). In this case, the parasites were cultured for a complete erythrocyte cycle lasting 48 hours in the presence of the corresponding NHE inhibitors.
(§3) The NHE inhibitors were dissolved in DMSO and prediluted in physiological saline solution (150 mM NaCl). The dilution series of the NHE inhibitors in 10-fold concentrated 20 μl aliquots was initially introduced onto the microtiter plates, 180 μl of parasite suspension in culture medium were then added to each one. The parasites were in the ring stage with a parasitemia of 1%. The microtiter plates were then incubated for 24 hours. In order to change the culture medium, 150 μl each of supernatant from each well were removed and replaced by 135 μl of new medium, additionally supplemented with 2 μCi/ml of [3H]-hypoxanthine. […] After incubation for a further 24 hours, the cultures were harvested by filtration on glass fiber filters and the incorporated radioactivity was measured. […]
(§4) The IC50 values of the various NHE inhibitors were measured on a chloroquine-sensitive (HB3) and a chloroquine-resistant (Dd2) strain.

For assay [2], the system named is Plasmodium falciparum HB3 (chloroquine-sensitive) strain. In words: growth inhibition of Plasmodium falciparum, [3H]-hypoxanthine incorporation, chloroquine-sensitive (HB3) strain. The note with it: 48 h erythrocyte cycle, ring stage, 1% parasitemia. In kind it is cell-based. On the procedure:
as §1, §2, §3, §4

[3] abbreviates: Dd2, chloroquine-resistant, 48 h erythrocyte cycle, ring stage, 1% parasitemia.

Regarding `NC(N)=NC(=O)c1ccc(Oc2cccnc2)c(C(F)(F)F)c1` [3-trifluoromethyl-4-(3-pyridyloxy)benzoylguanidine dihydrochloride], the figures for the IC50 in assay [1] (setting [3]) and in assay [2] were 6.5 ± 1.5 µM and 12 ± 1.7 µM, respectively.

As for `CN(C)c1cc(C(=O)N=C(N)N)cc(C(F)(F)F)c1` [3-trifluoromethyl-5-N,N-dimethylaminobenzoylguanidine dihydrochloride], the IC50 in assay [1] (setting [3]) came out at 1.3 ± 0.1 µM; in assay [2] it was 9.97 µM.

Take `CS(=O)(=O)c1cc(C(=O)N=C(N)N)ccc1Oc1ccc(CCN)cc1` [4-[4-(2-aminoethyl)phenoxy]-3-methylsulfonylbenzoylguanidine dihydrochloride]: the IC50 in assay [1] (DD2, Erythrocyte, 48 h) came to 3.5 ± 0.04 µM; in assay [2], 2.9 ± 0.79 µM.
